Paper PMC12519461 (ACS Infectious Diseases, 2025)
Read-outs that look alike come from different tables or passages of the source.

Assays:
A. cantonensis L1 larvae = assay: Anthelmintic activity against A. cantonensis first-stage larvae (motility/viability, 24 h); format: cell-based, Angiostrongylus cantonensis; conditions: for EC50: 24 h, read-out: A. cantonensis EC50 (μM ± SEM) L1; for activity against the larvae (in words): A. cantonensis larvae in vitro
Procedure: (§1) Larvae were washed three times in RPMI 1640 medium supplemented with 100 U/mL penicillin and 100 μg/mL streptomycin. Approximately 50 larvae were allocated into individual wells of a 96-well plate containing 200 μL of final volume of RPMI medium. […] Approximately 50 larvae were transferred to each well of a 96-well plate containing RPMI medium. […] Larval viability was monitored at 0 and 24 h post-treatment. […] Assays were performed in triplicate and repeated three times.

A. cantonensis L3 larvae = assay: Anthelmintic activity against A. cantonensis infective third-stage larvae (motility/viability, 24 h); format: cell-based, Angiostrongylus cantonensis; conditions: in vitro, 21 °C, read-out: A. cantonensis EC50 (μM ± SEM) L3
Procedure: as §1

in vitro = format: cell-based; conditions: L4 larvae, up to 1000 μM, read-out: C. elegans LC50
Procedure: Synchronized fourth-stage (L4) C. elegans larvae were distributed into 96-well plates containing M9 buffer (60 larvae/well). […] After 24 h incubation at 21 °C, larval survival was determined by motility: larvae unresponsive to gentle mechanical stimulation were classified as nonviable. […] Assays were performed in triplicate and repeated three times.

[1] = Cytotoxicity in HaCat cells (MTT, 72 h); format: cell-based; conditions: human, from 500 μM
Procedure: Cytotoxicity was assessed using the MTT assay. After 72 h, MTT solution was added, followed by 3 h of incubation. Absorbance was measured at 595 nm using an Epoch Microplate Spectrophotometer (BioTek Instruments, Winooski, VT, USA). Assays were performed in triplicate and repeated three times.

[2] = Angiostrongylus cantonensis, first-stage larvae (L1), in vitro, 21 °C
[3] = first-stage larvae (L1), in vitro, 21 °C

SMILES | EC50 (A. cantonensis L1 larvae; [2]) [µM] | EC50 (A. cantonensis L1 larvae; [3]) [µM] | EC50 (A. cantonensis L3 larvae; Angiostrongylus cantonensis) [µM] | EC50 (A. cantonensis L3 larvae) [µM] | LC50 at 24 h (in vitro) [µM] | CC50 at 72 h ([1]; HaCat cells) [µM] | activity against the larvae (in words) (A. cantonensis L1 larvae) | EC50 (A. cantonensis L1 larvae; Angiostrongylus cantonensis) [µM] | CC50 at 72 h [1] [µM]
COc1ccc(/C=C/CN2CCN(C(c3ccccc3)c3ccccc3)CC2)cc1 [compound 1b, 1-Benzhydryl-4-[(E)-3-(4-methoxyphenyl)allyl]piperazine] | 8.2 to 9.3 | 8.2 ± 1.2 | 8.2 to 9.3 | 8.7 ± 0.9 | > 1000 | > 500 | – | – | –
O=C(/C=C/c1ccccc1)N1CCN(C(c2ccccc2)c2ccccc2)CC1 [compound 3, (E)-1-(4-Benzhydrylpiperazin-1-yl)-3-phenyl-prop-2-en-1-one] | > 100 | – | – | – | > 1000 | > 500 | no activity | – | –
O=C(/C=C/c1ccc(O)cc1)N1CCN(C(c2ccccc2)c2ccccc2)CC1 [compound 3c, (E)-1-(4-Benzhydrylpiperazin-1-yl)-3-(4-hydroxyphenyl)prop-2-en-1-one] | > 100 | – | – | – | > 1000 | > 500 | – | – | –
COc1cc(/C=C/C(=O)N2CCN(C(c3ccccc3)c3ccccc3)CC2)ccc1O [compound 3d, (E)-1-(4-Benzhydrylpiperazin-1-yl)-3-(4-hydroxy-3-methoxy-phenyl)prop-2-en-1-one] | > 100 | – | – | – | > 1000 | > 500 | – | – | –
Clc1ccc(C(c2ccccc2)N2CCN(C/C=C/c3ccccc3)CC2)cc1 (stereo not shown) [compound 2, 1-[(4-Chlorophenyl)-phenyl-methyl]-4-[(E)-cinnamyl]piperazine, reference compound] | 4.2 ± 1.1 | – | 8.6 ± 1.1 | – | > 1000 | > 500 | – | – | –
CCCSc1ccc2nc(NC(=O)OC)[nH]c2c1 [albendazole, reference compound] | – | – | – | – | 14.8 ± 1.5 | – | – | 14.2 ± 1.1 | > 500
C(=C\c1ccccc1)/CN1CCN(Cc2ccccc2)CC1 [compound 1a, 1-Benzyl-4-[(E)-cinnamyl]piperazine] | > 100 | – | – | – | > 1000 | > 500 | no appreciable activity | – | –
Clc1ccc(CN2CCN(C/C=C/c3ccccc3)CC2)cc1 [compound 2a, 1-[(4-Chlorophenyl)methyl]-4-[(E)-cinnamyl]piperazine] | > 100 | – | – | – | > 1000 | > 500 | no appreciable activity | – | –
COc1ccc(/C=C/C(=O)N2CCN(C(c3ccccc3)c3ccccc3)CC2)cc1 [compound 3b, (E)-1-(4-Benzhydrylpiperazin-1-yl)-3-(4-methoxyphenyl)prop-2-en-1-one] | > 100 | – | – | – | > 1000 | > 500 | – | – | –
O=C(/C=C/c1ccccc1)N1CCN(Cc2ccccc2)CC1 [compound 3a, (E)-1-(4-Benzylpiperazin-1-yl)-3-phenyl-prop-2-en-1-one] | 8.2 | 8.7 ± 1.1 | 18.1 ± 1.5 | – | > 1000 | > 500 | – | – | –
C(=C\c1ccccc1)/CN1CCN(C(c2ccccc2)c2ccccc2)CC1 [compound 1, cinnarizine, reference compound] | – | – | – | – | > 1000 | – | – | – | –
COc1ccc(/C=C/CN2CCN(C(c3ccccc3)c3ccc(Cl)cc3)CC2)cc1 (stereo not shown) [compound 2b, 1-[(4-Chlorophenyl)-phenyl-methyl]-4-[(E)-3-(4-methoxyphenyl)allyl]piperazine] | 8.2 to 9.3 | 9.3 ± 0.9 | 8.2 to 9.3 | 8.8 ± 1.2 | > 1000 | > 500 | – | – | –
O=C(/C=C/c1ccc(O)c(O)c1)N1CCN(C(c2ccccc2)c2ccccc2)CC1 [compound 3e, (E)-1-(4-Benzhydrylpiperazin-1-yl)-3-(3,4-dihydroxyphenyl)prop-2-en-1-one] | > 100 | – | – | – | > 1000 | > 500 | – | – | –
